From ChEMBL document CHEMBL1131848, “8-aminoquinolines as anticoccidials - Part III” (Bioorg Med Chem Lett, 1999)
Converted amounts (≈) assume the structure as drawn.

Columns and labels:
Eimeria acervulina [1] = assay: In vivo anti-coccidial activity against Eimeria acervulina (chick 7-day coccidiosis model); format: functional
Eimeria acervulina [2] = assay: In vitro anti-coccidial activity against chicken hepatocyte Eimeria acervulina; format: functional, organism-based
Eimeria tenella [3] = assay: In vivo anti-coccidial activity against Eimeria tenella (chick 7-day coccidiosis model); format: functional
Eimeria tenella [4] = assay: In vitro anti-coccidial activity against chicken hepatocyte Eimeria tenella; format: functional, organism-based

SMILES | ED95 (Eimeria acervulina [1]) [p.p.m. in feed] | IC50 (Eimeria acervulina [2]) [µg/mL] | ED95 (Eimeria tenella [3]) [p.p.m. in feed] | IC50 (Eimeria tenella [4]) [µg/mL]
COc1cc(NCCCCCNC2CC[S+]([O-])CC2)c2ncccc2c1 (configuration not stated) | >25 | > 5 | >25 | > 1
CCNCCCCCNc1cc(OC)cc2cccnc12 | >50 | 0.2 (≈ 0.696 µM) | 6.25 | 0.2 (≈ 0.696 µM)
COc1cc(NCCCCCNC2CC2)c2ncccc2c1 | >12.5 | 0.2 (≈ 0.668 µM) | >12.5 | 0.2 (≈ 0.668 µM)
COc1cc(NCCCCCNCc2ccccc2)c2ncccc2c1 | >25 | 0.2 (≈ 0.572 µM) | >25 | 0.2 (≈ 0.572 µM)
COc1cc(NCCCCCNC2CCCO2)c2ncccc2c1 (configuration not stated) | 12.5 | 1 (≈ 3.04 µM) | 12.5 | 0.2 (≈ 0.607 µM)
COc1cc(NCCCCCNC2CCOCC2)c2ncccc2c1 | 12.5 | 0.2 (≈ 0.582 µM) | 6.25 | 0.2 (≈ 0.582 µM)
COc1cc(NCCCCCNC2CCSCC2)c2ncccc2c1 | >50 | 1 (≈ 2.78 µM) | >50 | 0.2 (≈ 0.556 µM)
COc1cc(NCCCNC(C)C)c2ncccc2c1 | >25 | 0.2 (≈ 0.732 µM) | >25 | 0.2 (≈ 0.732 µM)
COc1cc(NCc2ccc(NC(C)C)cc2)c2ncccc2c1 | >12.5 | 1 (≈ 3.11 µM) | >12.5 | > 1
COc1cc(NCCNC(C)C)c2ncccc2c1 | >25 | 1 (≈ 3.86 µM) | >25 | > 1
COc1cc(NCCCCCNC2CCCC2)c2ncccc2c1 | >25 | 0.2 (≈ 0.611 µM) | >25 | 0.2 (≈ 0.611 µM)
COc1cc(NCCCCCN)c2ncccc2c1 | 100 | 1 (≈ 3.86 µM) | 100 | > 1
CCN(CC)CCC[C@H](C)Nc1cc(OC)cc2cccnc12 | >50 | > 1 | >50 | 0.2 (≈ 0.634 µM)
COc1cc(NCCCCCNC(C)(C)C)c2ncccc2c1 | >25 | 0.2 (≈ 0.634 µM) | 6.25 | 0.2 (≈ 0.634 µM)
COc1cc(N[C@@H](C)CCCNC(C)C)c2ncccc2c1 | >50 | 1 (≈ 3.32 µM) | >50 | > 1
COc1cc(NCCCCNC(C)C)c2ncccc2c1 | 6.25 | 0.2 (≈ 0.696 µM) | 6.25 | 0.2 (≈ 0.696 µM)
N#CC(c1ccc(Cl)cc1)c1c(Cl)cc(-n2ncc(=O)[nH]c2=O)cc1Cl (configuration not stated) [DICLAZURIL] | 1 | 0.008 (≈ 0.0196 µM) | 1 | 0.008 (≈ 0.0196 µM)
COc1cc(NCCCCCNC(C)C)c2ncccc2c1 [PENTAQUINE] | 12.5 | 0.2 (≈ 0.663 µM) | 12.5 | 0.2 (≈ 0.663 µM)
